Patent EP4227307A1 (Genzyme Corporation, priority 2022, dated 2023)
Where a name gives a salt, the structure may show the parent alone.

The compounds below were run against T1, human recombinant 6His-Nterm SHP2 full-length (Thr2-Arg593) (Homo sapiens, UniProt Q06124) (assay: SHP2 Phosphatase Assay (DiFMUP fluorescence)). Details: SHP2 0.2 nM pre-incubated with 100 nM bi-phosphorylated activating peptide; compound 1000-0.05 nM, 30 min pre-incubation; DiFMUP 20 µM, 45 min, room temperature; 10-concentration dose-response.
T1 construct: 6His-Nterm SHP2 full-length (Thr2-Arg593, R&D system); 6His (N); purchased R&D system
T1 sequence (Q06124 2-593): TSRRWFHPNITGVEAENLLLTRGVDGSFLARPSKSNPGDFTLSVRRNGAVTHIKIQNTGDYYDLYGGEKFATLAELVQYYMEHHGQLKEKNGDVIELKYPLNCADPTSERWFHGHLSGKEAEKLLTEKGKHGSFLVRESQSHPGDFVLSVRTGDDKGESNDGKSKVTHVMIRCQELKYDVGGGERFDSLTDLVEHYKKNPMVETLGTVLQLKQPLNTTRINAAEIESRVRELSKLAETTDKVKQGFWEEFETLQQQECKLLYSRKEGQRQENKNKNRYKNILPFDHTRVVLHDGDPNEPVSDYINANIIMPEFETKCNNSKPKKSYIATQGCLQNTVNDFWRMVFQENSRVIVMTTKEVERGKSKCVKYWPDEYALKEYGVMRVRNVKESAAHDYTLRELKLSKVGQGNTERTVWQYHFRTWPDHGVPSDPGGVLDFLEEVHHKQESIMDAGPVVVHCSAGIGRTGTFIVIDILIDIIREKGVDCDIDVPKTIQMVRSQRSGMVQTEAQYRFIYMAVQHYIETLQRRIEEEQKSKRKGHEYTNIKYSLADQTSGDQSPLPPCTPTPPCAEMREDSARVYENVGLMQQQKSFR
Type: biochemical
Procedure: Inhibition of SHP2 phosphatase activity was evaluated using human recombinant 6His-Nterm SHP2 full-length (Thr2-Arg593, R&D system), NsCs bi-phosphorylated activating peptide (NH2-LN(pY)AQLWHA(PEG8)LTI(pY)ATIRRF-Amide.acetate, Thermofischer Scientific) and DiFMUP as surrogate phosphatase substrate (Molecular Probes). All reactions were performed at room temperature in 384-well black polystyrene non-binding plate (Corning) with the assay buffer (50 mM HEPES-NaOH pH 7.2, 100 mM NaCl, 0.5 mM EDTA, 0.001% Brij35 including 0.02% BSA and 1 mM DTT added extemporaneously). SHP2 was pre-incubated at least 10 min with the activating peptide (0.2 nM and 100 nM, respectively). 10 µL of this mixture was added to the assay plate, that already contained 15 nL of the compound (1000-0.05 nM). After 30 min pre-incubation, the enzymatic reaction was initiated by the addition of 5 µL DiFMUP in assay buffer without BSA (20 µM). The reaction was stopped by the addition of 15 µL sodium pervanadate solution (100 µM) after 45 min incubation. The fluorescence signal was measured at excitation and emission wavelengths of 350 nm and 450 nm, respectively, using a Pherastar instrument (BMG-LabTech). Percentage of inhibition […] were calculated from the fluorescence signal at 450 nm of the positive and negative control using the following formula: I% = ((signal Max−signal Sample)/(signal Max−signal Min control)) × 100 [formula]
Positive control (Max): corresponds to the maximum fluorescence signal obtained in the presence of 15 nL DMSO replacing the inhibitor in the pre-incubation step.
Negative control (Min): corresponds to the minimum signal obtained in the presence of 1 µM of RMC-4550, the structure of which is shown below: [drawing 464]
The IC50 were then calculated from a dose-response curve of 10 concentrations of tested compound using the 4-parameter logistic model: I% = A + (C)/(1 + exp(−B×log(X)−M)) [formula]
The parameters A and (A+C) are the lower and upper limits, B is the slope of the curve at the inflexion point, M parameter is the logarithm of the abscissa at the inflexion point, and X is the concentration of compound.

IC50 [nM]	SMILES
11	Cc1nc(N2CCC3(CC2)Cc2ncccc2[C@H]3N)c2ccnn2c1-c1ccccc1Cl [Compound 22, (5S)-1'-[7-(2-chlorophenyl)-6-methyl-pyrazolo[1,5-a]pyrazin-4-yl]spiro[5,7-dihydrocyclopenta[b]pyridine-6,4'-piperidine]-5-amine]
11	COc1cccc2c1CC1(CCN(c3nc(C)c(-c4ccnc(C)c4Cl)n4nccc34)CC1)[C@@H]2N [Compound 110, (1S)-1'-[7-(3-chloro-2-methyl-4-pyridyl)-6-methyl-pyrazolo[1,5-a]pyrazin-4-yl]-4-methoxy-spiro[indane-2,4'-piperidine]-1-amine]
11	Cc1nc(N2CCC3(CC2)Cc2ncccc2[C@H]3N)c2ccnn2c1-c1ccc2ccn(C)c2c1 [Compound 184, (5S)-1'-[6-methyl-7-(1-methylindol-6-yl)pyrazolo[1,5-a]pyrazin-4-yl]spiro[5,7-dihydrocyclopenta[b]pyridine-6,4'-piperidine]-5-amine]
10	COc1cnc2c(c1)[C@@H](N)C1(CCN(c3nc(C)c(-c4ccnc(C)c4Cl)n4nccc34)CC1)C2 [Compound 23, (5S)-1'-[7-(3-chloro-2-methyl-4-pyridyl)-6-methyl-pyrazolo[1,5-a]pyrazin-4-yl]-3-methoxy-spiro[5,7-dihydrocyclopenta[b]pyridine-6,4'-piperidine]-5-amine]
112	Cc1nc(N2CCC3(CC2)Cc2nccnc2[C@H]3N)c2ccnn2c1-c1ccccc1F [Compound 63, (5S)-1'-[7-(2-fluorophenyl)-6-methyl-pyrazolo[1,5-a]pyrazin-4-yl]spiro[5,7-dihydrocyclopenta[b]pyrazine-6,4'-piperidine]-5-amine]
27	Cc1nc(N2CCC3(CC2)Cc2ncccc2[C@H]3N)c2ccnn2c1-c1ccc(N)nc1 [Compound 177, (5S)-1'-[7-(6-amino-3-pyridyl)-6-methyl-pyrazolo[1,5-a]pyrazin-4-yl]spiro[5,7-dihydrocyclopenta[b]pyridine-6,4'-piperidine]-5-amine]
17	Cc1nccc(-c2c(C)nc(N3CCC4(CC3)Oc3ccccc3[C@H]4N)c3ccnn23)c1Cl [Compound 128, (3R)-1'-[7-(3-chloro-2-methyl-4-pyridyl)-6-methyl-pyrazolo[1,5-a]pyrazin-4-yl]spiro[3H-benzofuran-2,4'-piperidine]-3-amine]
> 1000	Cc1nc(N2CCC3(CC2)Cc2ncccc2[C@H]3N)c2ccnn2c1-c1cc(C(=O)N(C)C)ccc1F [Compound 172, 4-fluoro-N,N-dimethyl-3-[6-methyl-4-[(5S)-5-aminospiro[5,7-dihydrocyclopenta[b]pyridine-6,4'-piperidine]-1'-yl]pyrazolo[1,5-a]pyrazin-7-yl]benzamide]
4	Cc1nc(N2CCC3(CC2)Cc2ncccc2[C@H]3N)c2ccnn2c1-c1ccsc1Cl [Compound 54, (5S)-1'-[7-(2-chloro-3-thienyl)-6-methyl-pyrazolo[1,5-a]pyrazin-4-yl]spiro[5,7-dihydrocyclopenta[b]pyridine-6,4'-piperidine]-5-amine]
13	COc1cc2c(cn1)CC1(CCN(c3nc(C)c(-c4ccccc4F)n4nccc34)CC1)[C@@H]2N [Compound 131, (5S)-1'-[7-(2-fluorophenyl)-6-methyl-pyrazolo[1,5-a]pyrazin-4-yl] -3-methoxy-spiro [5,7-dihydrocyclopenta[c]pyridine-6,4'-piperidine]-5-amine]
19	Cc1nc(N2CCC3(CC2)Cc2c(F)cccc2[C@H]3N)c2ccnn2c1-c1cnn(C)c1C [Compound 95, (1S)-1'-[7-(1,5-dimethylpyrazol-4-yl)-6-methyl-pyrazolo[1,5-a]pyrazin-4-yl]-4-fluoro-spiro[indane-2,4'-piperidine]-1-amine formate]
20	Cc1nc(N2CCC3(CC2)Cc2ncccc2[C@H]3N)c2ccnn2c1-c1ccc2c(c1)CCN2C [Compound 171, (5S)-1'-[6-methyl-7-(1-methylindolin-5-yl)pyrazolo[1,5-a]pyrazin-4-yl]spiro[5,7-dihydrocyclopenta[b]pyridine-6,4'-piperidine]-5-amine]
370	Cc1nc(N2CCC3(CC2)Cc2ncccc2[C@H]3N)c2ccnn2c1-c1cncnc1 [Compound 165, (5S)-1'-(6-methyl-7-pyrimidin-5-yl-pyrazolo[1,5-a]pyrazin-4-yl)spiro[5,7-dihydrocyclopenta[b]pyridine-6,4'-piperidine]-5-amine]
8	Cc1nc(N2CCC3(CC2)Cc2ccc(C#N)cc2[C@H]3N)c2ccnn2c1-c1cnn(C)c1C (single isomer, unassigned) [Compound 211]
8	Cc1nccc(-c2c(C)nc(N3CCC4(CC3)Cc3ncccc3[C@H]4N)c3ccnn23)c1Cl [Compound 45, (5S)-1'-[7-(3-cldoro-2-methyl-4-pyridyl)-6-methyl-pyrazolo[1,5-a]pyrazin-4-yl]spiro[5,7-dihydrocyclopenta[b]pyridine-6,4'-piperidine]-5-amine]

SMILES	IC50 [nM]
COc1cc(-c2c(C)nc(N3CCC4(CC3)Cc3ncccc3[C@H]4N)c3ccnn23)c(F)cn1 [Compound 76, (5S)-1'-[7-(5-fluoro-2-methoxy-4-pyridyl)-6-methyl-pyrazolo [1,5-a]pyrazin-4-yl]spiro[5,7-dihydrocyclopenta[b]pyridine-6,4'-piperidine] -5-amine hydrochloride]	72
Cc1nc(N2CCC3(CC2)Cc2cc(F)c(F)cc2[C@H]3N)c2ccnn2c1-c1cnn(C)c1C [Compound 80, (1S)-1'-[7-(1,5-dimethylpyrazol-4-yl)-6-methyl-pyrazolo[1,5-a]pyrazin-4-yl]-5,6-difluoro-spiro [indane-2,4'-piperidine]-1-amine hydrochloride]	17
Cc1nc(N2CCC3(CC2)Cc2scnc2[C@H]3N)c2ccnn2c1-c1ccccc1 [Compound 68, (4S)-1'-(6-methyl-7-phenyl-pyrazolo[1,5-a]pyrazin-4-yl)spiro[4,6-dihydrocyclopenta[d]thiazole-5,4'-piperidine]-4-amine hydrochloride]	18
Cc1nc2c(s1)[C@@H](N)C1(CCN(c3nc(C)c(-c4ccnc(C)c4Cl)n4nccc34)CC1)C2 [Compound 84, (6S)-1'-[7-(3-chloro-2-methyl-4-pyridyl)-6-methyl-pyrazolo[1,5-a]pyrazin-4-yl]-2-methyl-spiro[4,6-dihydrocyclopenta[d]thiazole-5,4'-piperidine]-6-amine hydrochloride]	5
COc1ccc2c(c1)[C@@H](N)C1(CCN(c3nc(C)c(-c4ccnc(C)c4Cl)n4nccc34)CC1)C2 [Compound 10, (1S)-1'-[7-(3-chloro-2-methyl-4-pyridyl)-6-methyl-pyrazolo [1,5-a]pyrazin-4-yl]-6-methoxy-spiro[indane-2,4'-piperidine]-1-amine hydrochloride]	11
Cc1nccc(-c2c(C)nc(N3CCC4(CC3)Cc3nc(O)sc3[C@H]4N)c3ccnn23)c1Cl [Compound 218, (6S)-6-amino-1'-[7-(3-chloro-2-methyl-4-pyridyl)-6-methyl-pyrazolo[1,5-a]pyrazin-4-yl]spiro[4,6-dihydrocyclopenta[d]thiazole-5,4'-piperidine]-2-ol hydrochloride]	179
